We go through six compounds from ChEMBL document CHEMBL3046814, “Induction effects of host plants on insecticide susceptibility and detoxification enzymes of Bemisia tabaci (Hemiptera: Aleyrodidae)” (2011).

Common to all, as to type: functional
Assay [1] concerns Bemisia tabaci. The assay can be described thus: Insecticidal activity against Bemisia tabaci (sweet potato whitefly) infested cucumber leaves assessed as mortality after 48 hr by leaf dip method. The following applies: foliar.
The test system of assay [2] is Bemisia tabaci. The assay can be described thus: Insecticidal activity against Bemisia tabaci (sweet potato whitefly) infested cabbage leaves assessed as mortality after 48 hr by leaf dip method. The following applies: foliar.
Assay [3] deals with Bemisia tabaci. In words: Insecticidal activity against Bemisia tabaci (sweet potato whitefly) infested cotton leaves assessed as mortality after 48 hr by leaf dip method. The following applies: foliar.
Assay [4] deals with Bemisia tabaci. The assay can be described thus: Insecticidal activity against Bemisia tabaci (sweet potato whitefly) infested tomato leaves assessed as mortality after 48 hr by leaf dip method. The following applies: foliar.
Assay [5] deals with Bemisia tabaci. The assay can be described thus: Insecticidal activity against Bemisia tabaci (sweet potato whitefly) infested poinsettia leaves assessed as mortality after 48 hr by leaf dip method. The following applies: foliar.
In assay [6] the test system is Bemisia tabaci. The assay can be described thus: Resistance ratio of LC50 for Bemisia tabaci (sweet potato whitefly) infested poinsettia leaves to LC50 for Bemisia tabaci (sweet potato whitefly) infested tomato leaves.
Assay [7] relates to Bemisia tabaci. The assay can be described thus: Resistance ratio of LC50 for Bemisia tabaci (sweet potato whitefly) infested poinsettia leaves to LC50 for Bemisia tabaci (sweet potato whitefly) infested cucumber leaves.
Assay [8] relates to Bemisia tabaci. In words: Resistance ratio of LC50 for Bemisia tabaci (sweet potato whitefly) infested poinsettia leaves to LC50 for Bemisia tabaci (sweet potato whitefly) infested cabbage leaves.
For assay [9], the system named is Bemisia tabaci. In words: Resistance ratio of LC50 for Bemisia tabaci (sweet potato whitefly) infested squash leaves to LC50 for Bemisia tabaci (sweet potato whitefly) infested cotton leaves.
The test system of assay [10] is Bemisia tabaci. In words: Resistance ratio of LC50 for Bemisia tabaci (sweet potato whitefly) infested squash leaves to LC50 for Bemisia tabaci (sweet potato whitefly) infested cabbage leaves.

What is called LC50 is the concentration lethal to half of the exposed cells or organisms.

Converted amounts (≈) assume the structure as drawn.

Regarding `CC[C@H](C)[C@H]1O[C@]2(C=C[C@@H]1C)C[C@@H]1C[C@@H](C/C=C(\C)[C@@H](O[C@H]3C[C@H](OC)[C@@H](O[C@H]4C[C@H](OC)[C@@H](O)[C@H](C)O4)[C@H](C)O3)[C@@H](C)/C=C/C=C3\CO[C@@H]4[C@H](O)C(C)=C[C@@H](C(=O)O1)[C@]34O)O2.CO[C@H]1C[C@H](O[C@H]2[C@H](C)O[C@@H](O[C@@H]3/C(C)=C/C[C@@H]4C[C@@H](C[C@]5(C=C[C@H](C)[C@@H](C(C)C)O5)O4)OC(=O)[C@@H]4C=C(C)[C@@H](O)[C@H]5OC/C(=C\C=C\[C@@H]3C)[C@]54O)C[C@@H]2OC)O[C@@H](C)[C@@H]1O` [ABAMECTIN], the LC50 with Bemisia tabaci [1] amounted to 0.5 µg/mL; in the assay with Bemisia tabaci [2], 0.3 µg/mL; with Bemisia tabaci [3], 0.7 µg/mL; with Bemisia tabaci [4] it was 0.4 µg/mL; with Bemisia tabaci [5], 0.74 µg/mL.
With `N#Cc1nn(-c2c(Cl)cc(C(F)(F)F)cc2Cl)c(N)c1[S+]([O-])C(F)(F)F` (centres undefined) [FIPRONIL], the LC50 in the assay with Bemisia tabaci [1] is 8.79 µg/mL (≈ 20.1 µM); in the assay with Bemisia tabaci [2] it was 3.82 µg/mL (≈ 8.74 µM); with Bemisia tabaci [3], 3.51 µg/mL (≈ 8.03 µM); in the assay with Bemisia tabaci [4], 5.96 µg/mL (≈ 13.6 µM); with Bemisia tabaci [5] it was 9.13 µg/mL (≈ 20.9 µM).
On to `CCOP(=S)(OCC)Oc1nc(Cl)c(Cl)cc1Cl` [CHLORPYRIFOS], for which the LC50 in the assay with Bemisia tabaci [1] is 924 µg/mL (≈ 2640 µM); in the assay with Bemisia tabaci [2], 722 µg/mL (≈ 2060 µM); in the assay on Bemisia tabaci [3] it was 1410 µg/mL (≈ 4030 µM); in the assay on Bemisia tabaci [4] it was 581 µg/mL (≈ 1660 µM); in the assay with Bemisia tabaci [5], 2120 µg/mL (≈ 6040 µM). The RatioLC50 with Bemisia tabaci [6] worked out at 3.65.
As to `C/C(=N\C#N)N(C)Cc1ccc(Cl)nc1` [ACETAMIPRID], the RatioLC50 amounted to 10.34 in the assay with Bemisia tabaci [7] and 14.8 in the assay with Bemisia tabaci [6]. The LC50 in the assay on Bemisia tabaci [1] turned out to be 12.4 µg/mL (≈ 55.7 µM); with Bemisia tabaci [2], 17.7 µg/mL (≈ 79.5 µM); in the assay on Bemisia tabaci [3] it was 66.4 µg/mL (≈ 298 µM); in the assay on Bemisia tabaci [4], 8.73 µg/mL (≈ 39.2 µM); with Bemisia tabaci [5], 129 µg/mL (≈ 579 µM).
Consider `CCCCN(CCCC)SN(C)C(=O)Oc1cccc2c1OC(C)(C)C2` [CARBOSULFAN], for which the LC50 was determined as 3090 µg/mL (≈ 8110 µM) in the assay on Bemisia tabaci [1]; 696 µg/mL (≈ 1830 µM) with Bemisia tabaci [2]; 2880 µg/mL (≈ 7560 µM) with Bemisia tabaci [3]; 586 µg/mL (≈ 1540 µM) in the assay with Bemisia tabaci [4]; 3730 µg/mL (≈ 9790 µM) in the assay on Bemisia tabaci [5]. The RatioLC50 in the assay with Bemisia tabaci [6] stood at 6.36; in the assay on Bemisia tabaci [8], 5.36.
Regarding `Cc1c(COC(=O)[C@@H]2[C@H](/C=C(\Cl)C(F)(F)F)C2(C)C)cccc1-c1ccccc1` [BIFENTHRIN], the RatioLC50 turned out to be 7.5 in the assay with Bemisia tabaci [9], 7.5 in the assay on Bemisia tabaci [10], 4.02 with Bemisia tabaci [6] and 3.19 in the assay with Bemisia tabaci [8]. The LC50 in the assay on Bemisia tabaci [1] is 462 µg/mL (≈ 1090 µM); in the assay on Bemisia tabaci [2], 145 µg/mL (≈ 343 µM); with Bemisia tabaci [3] it was 228 µg/mL (≈ 539 µM); in the assay with Bemisia tabaci [4], 115 µg/mL (≈ 272 µM); with Bemisia tabaci [5], 278 µg/mL (≈ 657 µM).
